According to patent publication US20050239051A1, “Use of isogenic human cancer cells for high-throughput screening and drug discovery” (The Johns Hopkins University, priority 2001, published 2005):

Tests used:
[1] = tested on: mutant-RAS cell line; assay: Growth inhibition assay with parental non-GFP cell lines plated separately, PicoGreen (FIG. 6); type: cell-based, human; details: range of concentrations, five days
Protocol: FIG. 6. Structure/activity ratios (SAR's) of compounds with structural homology to TPT. Growth inhibition assays were performed using parental (non-GFP modified) cell lines. Cells were plated separately at low density in 96 well plates and exposed to a range of test drug concentrations for five days. Cells were then lysed in H2O, and lysates assayed for relative cell number using the dsDNA-binding dye (PicoGreen).
Secondary screens on primary screen hits were performed as above except that a drug concentration range was used, typically extending from 30 ng/ml to 4 μg/ml. […] Assays using non-GFP modified cell lines were performed using cells plated separately rather than co-cultured. Plates were harvested each day for assessment of cell number using either an MTT assay or using the DNA-binding dye PicoGreen (Molecular Probes, Eugene, Oreg.). MTT assays were performed according to the manufacturers instructions (Trevigen, Gaithersburg, Md.). PicoGreen assays were performed by lysing cells in 96-well plates in 200 μl H2O, triturating and then transferring a 10 μl aliquot from each well to […] of PigoGreen solution (# P-7581) diluted to 0.5% vol/vol in Tris-EDTA (TE) buffer.

[2] = tested on: KO cells (DKS-8, mutant c-Ki-Ras allele deleted); assay: Co-culture fluorescence growth inhibition screen, KO cells (YFP); type: cell-based, human; details: concentration and time course experiments, co-cultured cells (FIG. 5)
Description: (§1) FIG. 1. Schematic of drug screening format using co-cultured isogenic cells modified with spectrally distinct green fluorescent protein (GFP) variants. DLD-1 cells, harbouring a mutant c-Ki-RAS allele plus a wild-type (wt) c-Ki-RAS allele, were modified to stably express a GFP variant that is excited at 530 nm (YFP). An isogenic clone (KO) in which only the mutant c-Ki-RAS allele has been deleted (Adegboyega et al., Arch. Pathol. Lab. Med., 121:1063-68, 1997) was modified to express a GFP variant that is excited at 390 nm (BFP). These cells were mixed and plated at low density in 96-well plates. […] Plates were assayed every day for six days using a fluorescence plate reader to obtain growth curves for each cell line in every well of the plate.
(§2) FIG. 5. […] Growth curves were obtained from fluorescence at 390ex/508em (DLD-1) and 530ex/590em (KO). […]
(§3) Fluorescent cell lines were harvested by trypsinization and resuspended together as a mixture containing 22,000 cells/ml (DLD-1) and 18,000 cells/ml (KO) in DMEM media supplemented with 10% FCS (HyClone, Logan, Utah). […] Each well of column 1 contained […] of the growth medium without cells as a control for computing background fluorescence. […] Fluorometry data from each day's read were exported to a custom program (Drugmobile) for plotting the growth curves of each cell line in each well of the 96-well plate. […]

[3] = tested on: DLD-1 cells (mutant c-Ki-Ras); assay: Co-culture fluorescence growth inhibition screen, DLD-1 cells (BFP); type: cell-based, human
Description: as §1, §2, §3

[4] = molecular target: p38 (Homo sapiens, UniProt Q16539); assay: In vitro kinase assay, p38; type: biochemical; details: in vitro kinase assays (data not shown)
Description: (§4) No anti-proliferative activity has previously been described for TPT. Tetrazole compounds such as TPT are commonly used as histological reagents that are reduced by cellular dehydrogenases in viable cells to a coloured formazan dye (Adegboyega et al., Arch. Pathol. Lab. Med., 121:1063-68, 1997, Otero et al., Cytotechnology, 6:137-42, 1991). However, no obvious staining of cells was observed using TPT at the concentrations used in the present assays. […] A previously identified inhibitor of p38 mitogen activated kinase (SB203580) (Cuenda et al., FEBS Lett., 364:229-33, 1995, Liverton et al., J. Med. Chem., 42:2180-90, 1999) was also noted to be structurally similar to TPT (FIG. 6). […] It is therefore unclear whether kinases represent cellular targets for TPT.

[5] = molecular target: c-Raf-1 (Homo sapiens, UniProt P04049); assay: In vitro kinase assay, c-Raf-1; type: biochemical; details: in vitro kinase assays (data not shown)
Description: as §4

[6] = tested on: c-Jun kinases; assay: In vitro kinase assay, c-Jun kinases; type: biochemical; details: in vitro kinase assays (data not shown)
Description: as §4

[7] = tested on: downstream components of the RAS pathway; details: previously shown (Cardenas 1998; Campbell 1994); cited from earlier work

Chain of p38 (Q16539 whole entry): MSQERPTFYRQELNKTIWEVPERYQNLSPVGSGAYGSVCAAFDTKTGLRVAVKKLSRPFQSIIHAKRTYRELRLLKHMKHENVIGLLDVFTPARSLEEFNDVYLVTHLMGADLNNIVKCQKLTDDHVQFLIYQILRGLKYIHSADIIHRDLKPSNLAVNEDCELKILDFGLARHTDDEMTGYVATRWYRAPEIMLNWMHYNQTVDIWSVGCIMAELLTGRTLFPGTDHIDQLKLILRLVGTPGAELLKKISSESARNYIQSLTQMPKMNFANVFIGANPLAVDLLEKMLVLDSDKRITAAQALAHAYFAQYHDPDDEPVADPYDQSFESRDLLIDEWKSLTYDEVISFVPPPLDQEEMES
Chain of c-Raf-1 (P04049 whole entry): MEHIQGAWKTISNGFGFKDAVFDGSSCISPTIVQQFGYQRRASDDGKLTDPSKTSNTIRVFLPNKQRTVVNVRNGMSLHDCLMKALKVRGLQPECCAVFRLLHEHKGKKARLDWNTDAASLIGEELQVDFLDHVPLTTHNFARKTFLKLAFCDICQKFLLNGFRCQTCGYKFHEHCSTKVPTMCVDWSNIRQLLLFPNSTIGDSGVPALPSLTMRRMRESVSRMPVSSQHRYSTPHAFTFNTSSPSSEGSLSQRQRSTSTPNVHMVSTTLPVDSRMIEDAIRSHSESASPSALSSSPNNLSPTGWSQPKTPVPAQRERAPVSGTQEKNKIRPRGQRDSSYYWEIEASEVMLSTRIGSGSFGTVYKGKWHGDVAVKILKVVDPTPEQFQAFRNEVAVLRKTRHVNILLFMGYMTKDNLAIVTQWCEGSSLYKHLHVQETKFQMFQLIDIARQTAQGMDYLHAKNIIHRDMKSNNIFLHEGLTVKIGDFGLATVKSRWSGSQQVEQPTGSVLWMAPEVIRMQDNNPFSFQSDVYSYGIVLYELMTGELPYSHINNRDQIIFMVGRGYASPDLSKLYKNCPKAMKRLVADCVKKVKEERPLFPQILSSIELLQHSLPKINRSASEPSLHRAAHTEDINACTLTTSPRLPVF

**Q.** With `C[S+]([O-])c1ccc(-c2nc(-c3ccncc3)c(-c3ccc(F)cc3)[nH]2)cc1` (centres unmarked) [SB203580] as the compound, how does the “selectivity towards the mutant RAS-containing line” value [1] read?
**A.** failed to show selectivity

**Q.** For `c1ccc(-c2nn(-c3ccccc3)[n+](-c3ccccc3)n2)cc1` [TPT, Triphenyltetrazolium], which “IC50 on KO” value [2] is on record?
**A.** ~12 µg/mL

**Q.** What about the “selectivity for inhibiting the growth of the mutant c-Ki-RAS cell line (DLD-1)” value ([3]; DLD-1 versus KO) of the same compound?
**A.** ~6 fold

**Q.** What about the “IC50 on DLD-1” value ([3]; concentration and time course experiments, co-cultured cells (FIG. 5)) of the same compound?
**A.** ~2 µg/mL

**Q.** And the “inhibition of p38” value [4]?
**A.** little or no reproducible inhibition

**Q.** What about the “inhibition of c-Raf-1” value [5] of the same compound?
**A.** little or no reproducible inhibition

**Q.** What about the “inhibition of c-Jun kinases” value [6] of the same compound?
**A.** little or no reproducible inhibition

**Q.** With `C[C@@]12c3ccc4c(c3C(=O)c3occ(c31)C(=O)C[C@H]2O)CCC4=O` [demethoxyviridin] as the compound, how does the “inhibition of downstream components of the RAS pathway” value [7] read?
**A.** inhibit downstream components of the RAS pathway
